Laboratory results reported in publication PMC11359197 (Viruses, 2024).
Where a SMILES comes first, the peptide text is derived from it.

Test system: SARS-CoV-2 M^pro precursors Nsp4-4F-M^pro-GST and 4F-M^pro-GST
Format: cell-based

| Structure (SMILES) | AlphaLISA signal (precursor-mediated N-terminal processing) |
| --- | --- |
| CC(C)C[C@H](NC(=O)[C@H]1O[C@@H]1C(=O)O)C(=O)NCCCCN=C(N)N [E-64] | background levels |
| COC(=O)N[C@H](C(=O)N[C@@H](Cc1ccccc1)[C@@H](O)CN(Cc1ccc(-c2ccccn2)cc1)NC(=O)[C@@H](NC(=O)OC)C(C)(C)C)C(C)(C)C [atazanavir] | background levels |
| CC(NC(=O)[C@H](Cc1ccccc1)NC(=O)OCc1ccccc1)C(=O)CF (stereo partly drawn) [Z-FA-FMK] | no detectable impact |
| CSCC[C@@H](C=O)NC(=O)[C@H](CC(C)C)NC(=O)[C@H](CC(C)C)NC(C)=O [calpain inhibitor II] (Ac-Leu-Leu-Met-aldehyde) | no detectable impact |
| CC(C)(C)NC(=O)N[C@H](C(=O)N1C[C@H]2[C@@H]([C@H]1C(=O)NC(CC1CCC1)C(=O)C(N)=O)C2(C)C)C(C)(C)C (stereo partly drawn) [boceprevir, Boceprevir] | no detectable impact |
| Cc1cccc(C)c1OCC(=O)N[C@@H](Cc1ccccc1)[C@@H](O)C[C@H](Cc1ccccc1)NC(=O)[C@H](C(C)C)N1CCCNC1=O [lopinavir] | background levels |
